# Results: PubChem BioAssay AID1033 (Sanford-Burnham Center for Chemical Genomics, 2008)
# Active and inactive are the calls of the source. The rule behind the calls is not given here.
# Biological target: Chaperone protein DnaK (Escherichia coli (strain K12)) (UniProt P0A6Y8)
# Experiment: binders of DnaK substrate-binding domain, biophysical, NMR, chaperone (AID 1033)
# Conditions: Purified DnaK SBD, NMR ligand binding
# Chaperone protein DnaK (Escherichia coli (strain K12)), sequence (P0A6Y8 whole entry, looked up, the tested form may be a part): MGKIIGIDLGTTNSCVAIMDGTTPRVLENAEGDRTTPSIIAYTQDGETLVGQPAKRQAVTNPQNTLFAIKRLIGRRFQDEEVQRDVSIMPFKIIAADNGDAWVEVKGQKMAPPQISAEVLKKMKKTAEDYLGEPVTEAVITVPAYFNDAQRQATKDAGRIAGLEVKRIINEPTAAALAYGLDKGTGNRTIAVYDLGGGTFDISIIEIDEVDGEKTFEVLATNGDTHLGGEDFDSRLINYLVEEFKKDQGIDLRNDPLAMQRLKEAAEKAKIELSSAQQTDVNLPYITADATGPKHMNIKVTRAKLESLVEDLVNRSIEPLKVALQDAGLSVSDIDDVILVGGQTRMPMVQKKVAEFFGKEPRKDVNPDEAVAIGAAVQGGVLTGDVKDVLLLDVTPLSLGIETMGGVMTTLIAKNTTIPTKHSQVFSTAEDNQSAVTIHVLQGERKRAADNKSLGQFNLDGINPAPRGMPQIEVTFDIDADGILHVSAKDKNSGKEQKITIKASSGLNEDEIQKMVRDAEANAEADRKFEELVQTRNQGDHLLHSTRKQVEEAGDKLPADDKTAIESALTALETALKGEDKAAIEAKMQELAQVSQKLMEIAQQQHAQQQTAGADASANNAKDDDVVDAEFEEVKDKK
row,SMILES,Kd
1,O=C(O)c1cccnc1-c1nc2ccccc2s1,> 4 mM (inactive)
2,Nc1cccc(C(=O)Nc2ccc(N)cc2Cl)c1,> 4 mM (inactive)
3,NC(=O)c1c(Cl)nsc1-c1ccccc1Cl,> 4 mM (inactive)
4,OCc1ccc2nsnc2c1,> 4 mM (inactive)
5,CS(=O)(=O)c1nncn1-c1ccccc1,> 4 mM (inactive)
6,CC(=O)Nc1cccc(-c2nnc(-c3ccccc3)o2)c1,> 4 mM (inactive)
7,O=C1C(=O)N(CNc2ncccn2)c2ccccc21,> 4 mM (inactive)
8,Cc1cc(OC(=O)c2c(C)cc(O)cc2O)cc(O)c1C(=O)O,> 4 mM (inactive)
9,CCOC(=O)c1c(C)nc2sccn12,> 4 mM (inactive)
10,Cc1nn2c(nc1=O)SCC(c1ccccc1)=N2,> 4 mM (inactive)
11,Cc1occc1C(=O)Nc1cc(C(C)(C)C)on1,> 4 mM (inactive)
12,Cc1nnc(N2CCN(c3ccccc3)CC2)[nH]c1=O,> 4 mM (inactive)
13,OCC1CCCC1O (centres undefined),> 4 mM (inactive)
14,COc1ccc(NS(=O)(=O)c2ccc(N)cc2)nn1,> 4 mM (inactive)
15,O=C1CSC(=Nc2ccc(F)cc2)N1,> 4 mM (inactive)
16,COC(=O)c1c(OC)cc2c(c1C)Oc1c(Cl)c(OC(C)=O)c(Cl)c(C)c1C(=O)O2,> 4 mM (inactive)
17,Cc1ccccc1-n1c(-c2ccncc2)n[nH]c1=S,> 4 mM (inactive)
18,COc1ccccc1-c1c(C)nn2c(C)c(C(C)=O)cnc12,> 4 mM (inactive)
19,OCc1ccc(-n2cncn2)cc1,> 4 mM (inactive)
20,Nc1c2c3c(sc2nc(=O)n1N)CCCC3,> 4 mM (inactive)
21,CC1(C)CC2C1CC[C@]1(C)CCC3C(C(=O)O)CC(=O)O[C@@]32C1 (some centres undefined),> 4 mM (inactive)
22,COc1cnn(-c2ccccc2)c(=O)c1N(C)C,> 4 mM (inactive)
23,CC(C)C1COc2cc3oc(=O)ccc3cc2O1 (centres undefined),> 4 mM (inactive)

row,SMILES,Kd
1,COc1ccc(N2CC(=O)NC2=O)cc1,> 4 mM (inactive)
2,C[n+]1cc2c3c(ccc2c2ccc4cc5c(cc4c21)OCO5)OCO3,> 4 mM (inactive)
3,O=C(O)c1cccnc1,> 4 mM (inactive)
4,Cc1c(C)n2c(SCC(N)=O)nnc2[nH]c1=O,> 4 mM (inactive)
5,CCOC(=O)CSc1nnc(C)c(=O)[nH]1,> 4 mM (inactive)
6,CCCCCCCCCCCC[C@H](C(=O)O)[C@@H](C)C(=O)O,> 4 mM (inactive)
7,COC(=O)c1noc(-c2ccc(OC)cc2)n1,> 4 mM (inactive)
8,CN(C)C(=S)Nc1ccc([N+](=O)[O-])cc1,> 4 mM (inactive)
9,COc1ccc2c(c1OC)C(=O)N(c1ncn[nH]1)C2,> 4 mM (inactive)
10,O=C(Nc1ccccc1)C(=O)NC1CC1,> 4 mM (inactive)
11,COc1cc2c(cc1OC)C(=O)OC2,> 4 mM (inactive)
12,Cc1cc(C(=O)Nn2cnnc2)cs1,> 4 mM (inactive)
13,O=C1COc2ccc(C(=O)c3ccccc3)cc2CN1,> 4 mM (inactive)
14,COc1ccc(-c2cc(=O)c3cc(OC)ccc3o2)cc1,> 4 mM (inactive)
15,NC1=NC(=O)/C(=C\c2ccccc2)S1,> 4 mM (inactive)
16,O=C(O)C1CN(Cc2ccccc2)CCO1 (centres undefined),> 4 mM (inactive)
17,COc1cc(C(C)=O)ccc1OC(=O)N1CCOCC1,> 4 mM (inactive)
18,CC1=C(CCC(=O)O)c2cc3nc(cc4[nH]c(cc5[nH]c(cc1n2)c(C)c5C(C)O)c(C)c4C(C)O)C(C)=C3CCC(=O)O (centres undefined),> 4 mM (inactive)
19,CCOc1cc(S(=O)(=O)N2CCOCC2)ccc1F,> 4 mM (inactive)
20,CC(=O)Oc1ccc(N2C(=O)C3C4C=CC(O4)C3C2=O)cc1 (centres undefined),> 4 mM (inactive)
21,O=CN1CCN(C(=O)c2ccccc2Cl)CC1,> 4 mM (inactive)
22,Cn1nc(C(=O)Nc2cccnc2)c2ccccc2c1=O,> 4 mM (inactive)
23,Cc1ccccc1N1C(=O)CC(=O)NC1=O,> 4 mM (inactive)

row,SMILES,Kd
1,O=C(CCc1n[nH]c(=O)[nH]c1=O)NCc1ccccc1,> 4 mM (inactive)
2,CNC(=O)Oc1ccc2c(c1)[C@]1(C)CCN(C)[C@@H]1N2C,> 4 mM (inactive)
3,O=C(O)C1CCN(c2ccc(C(F)(F)F)cn2)CC1,> 4 mM (inactive)
4,NCc1ccc2c(c1)CCO2,> 4 mM (inactive)
5,Nc1cccc(S(=O)(=O)N2CCCC2)c1,> 4 mM (inactive)
6,NCc1c[nH]c2ccccc12,> 4 mM (inactive)
7,Cc1csc2nc(=O)c3ccccc3n12,> 4 mM (inactive)
8,Nc1ccccc1C(=O)N1CCNC(=O)C1,> 4 mM (inactive)
9,Cc1cc([N+](=O)[O-])cc[n+]1[O-],> 4 mM (inactive)
10,C#CCCCCCCCCCCCC(=O)CC(O)COC(C)=O (centres undefined),> 4 mM (inactive)
11,CN(C)C(=S)Nc1ccccc1N1CCOCC1,> 4 mM (inactive)
12,O=C(O)c1ccc2c(c1)CCO2,> 4 mM (inactive)
13,Nc1cncc(C(=O)O)c1,> 4 mM (inactive)
14,Cc1cc2nc3c(=O)[nH]c(=O)nc-3n(CC(O)C(O)C(O)CO)c2cc1C (centres undefined),> 4 mM (inactive)
15,COc1cc2c(cc1OC)[C@@H]1C(=O)c3ccc(OC)c(CC=C(C)C)c3O[C@@H]1CO2,> 4 mM (inactive)
16,OCCNc1nc2ccc(Cl)cc2[nH]1,> 4 mM (inactive)
17,O=C(O)c1snnc1-c1ccccc1,> 4 mM (inactive)
18,O=C(O)CS(=O)(=O)c1ccccc1[N+](=O)[O-],> 4 mM (inactive)
19,OC1CCNC2CCCCC12 (centres undefined),> 4 mM (inactive)
20,Cn1cccc1C=C1C(=O)NC(=S)NC1=O,> 4 mM (inactive)
21,CC(=O)c1cnc2nc(C(F)(F)F)nn2c1C,> 4 mM (inactive)
22,COc1ccc(NC(=O)/C=N/O)cc1,> 4 mM (inactive)
23,Cn1c(=O)[nH]c(=O)c2nsnc21,> 4 mM (inactive)

row,SMILES,Kd
1,O=C(/C=C/c1ccccc1)NC1CCS(=O)(=O)C1 (centres undefined),> 4 mM (inactive)
2,CC(=O)Nc1nc(C)c(C(C)=O)s1,> 4 mM (inactive)
3,Cc1nnsc1C(=O)Nc1ccc(C(N)=O)cc1,> 4 mM (inactive)
4,O=C1c2ccccc2C(=O)c2c1ccc(O)c2O,> 4 mM (inactive)
5,COc1cc2nc(N3CCNCC3)nc(N)c2cc1OC,> 4 mM (inactive)
6,O=C1NC(=Nc2ccccc2)S/C1=C/c1cccnc1,> 4 mM (inactive)
7,Fc1ccc(CN2CCCNCC2)cc1,> 4 mM (inactive)
8,O=c1[nH]c(=S)c2c(n1-c1ccccc1)CCC2,> 4 mM (inactive)
9,CCOC(=O)c1c(C)cc(O)c(C=O)c1O,> 4 mM (inactive)
10,CC(C)(OC(=O)c1ccccc1)[C@@H]1Cc2cc3ccc(=O)oc3cc2O1,> 4 mM (inactive)
11,CC(=O)Oc1ccc2c(c1OC(C)=O)OCC1(O)Cc3c(cc(OC(C)=O)c(OC(C)=O)c3OC(C)=O)C21 (centres undefined),> 4 mM (inactive)
12,OC[C@@H](O)[C@@H](O[C@@H]1O[C@H](CO)[C@@H](O)[C@H](O)[C@H]1O)[C@H](O)[C@@H](O)CO,> 4 mM (inactive)
13,CC1SC(=NC(=O)c2ccco2)NC1=O (centres undefined),> 4 mM (inactive)
14,CN(C)CCCN1CNC(=S)NC1,> 4 mM (inactive)
15,Cc1ccc(N2CCN(C(=O)c3ccccc3)CC2)c(C)c1,> 4 mM (inactive)
16,C=C1C([C@]2(C)C(CC(=O)OC)[C@@](C)(COC(C)=O)OC(=O)C[C@@H]2OC(C)=O)[C@@H](OC=O)[C@H](OC(=O)C(O)C(C)CC)[C@@]2(C)[C@H](c3ccoc3)CC(=O)C12O (some centres undefined),> 4 mM (inactive)
17,CC1(C)C(=O)N(O)C(C)(C)C(=O)N1O,> 4 mM (inactive)
18,CC1=CC(=O)C2C(C)(C)CCC[C@]2(C)[C@@]1(O)CCc1ccoc1 (some centres undefined),> 4 mM (inactive)
19,O=C1C=C(Nc2ccc(O)cc2)c2ccccc2C1=O,> 4 mM (inactive)
20,COc1ccc(C2CC(=O)c3ccc(OC)cc3O2)cc1 (centres undefined),> 4 mM (inactive)
21,CC1CCC2(OC1)OC1CC3C4CCC5C[C@@H](O)CCC5(C)C4=CCC3(C)C1[C@@H]2C (some centres undefined),> 4 mM (inactive)
22,OCCCc1nc2ccccc2[nH]1,> 4 mM (inactive)
23,CSc1nnc2c(n1)OC=Nc1ccccc1-2,> 4 mM (inactive)

row,SMILES,Kd
1,CCCCCCCCCCCCCc1ccco1,> 4 mM (inactive)
2,CC1=C(/C=C/C(C)=C/C=C/C(C)=C/C=C/C=C(C)/C=C/C=C(C)/C=C/C2=C(C)CCCC2(C)C)C(C)(C)CCC1,> 4 mM (inactive)
3,O=C(O)c1ccc(CSc2ncn[nH]2)cc1,> 4 mM (inactive)
4,CSc1n[nH]c(NCc2cccs2)n1,> 4 mM (inactive)
5,C=C(C)[C@@H]1CC[C@]2(CO)CC[C@]3(C)[C@H](CCC4[C@@]5(C)CC[C@H](O)C(C)(C)C5CC[C@]43C)C12 (some centres undefined),> 4 mM (inactive)
6,COc1cc(O)ccc1C(C)=O,> 4 mM (inactive)
7,CC(=O)Nn1cc2c(=O)n(C)c(=O)n(C)c2c1,> 4 mM (inactive)
8,CC(=O)Nc1cccc(-c2nc3ccccc3c(=O)o2)c1,> 4 mM (inactive)
9,COCC(=O)Nc1ccc(F)cc1F,> 4 mM (inactive)
10,CC1(C)SCC(C(=O)O)N1C=O (centres undefined),> 4 mM (inactive)
11,NC(=O)CC(=O)NC12CC3CC(CC(C3)C1)C2,> 4 mM (inactive)
12,COc1ccc2c(c1)OCC(Cc1ccc(OC)c(OC)c1)C2=O (centres undefined),> 4 mM (inactive)
13,CC(CCC(=O)O)[C@H]1CCC2C3CC[C@@H]4C[C@H](O)CC[C@]4(C)C3C[C@H](O)[C@@]21C (some centres undefined),> 4 mM (inactive)
14,O=C(O)c1ccc(N2CCOCC2)nc1,> 4 mM (inactive)
15,NCc1ccc(CN2CCOCC2)cc1,> 4 mM (inactive)
16,O=c1cc(O)nc(SCc2ccccc2)[nH]1,> 4 mM (inactive)
17,CCCCn1c(=O)cc(O)c2ccccc21,> 4 mM (inactive)
18,Nc1nnc(SCc2ccc(F)cc2)s1,> 4 mM (inactive)
19,O=[n+]1cc(-c2ccccc2)n([O-])c2c1CCC2,> 4 mM (inactive)
20,CC(=O)O[C@@H]1C[C@@]2(C)[C@H](c3ccoc3)C[C@H]3O[C@]32[C@]2(C)C(=O)C(O)=C3C(C)(C)C(=O)C=C[C@]3(C)C12 (some centres undefined),> 4 mM (inactive)
21,N=c1c2c3c(sc2ncn1N)CCCC3,> 4 mM (inactive)
22,O=C(CCc1ccc(O)cc1)c1c(O)cc(O)cc1O[C@@H]1O[C@H](CO)[C@@H](O)[C@H](O)[C@H]1O,> 4 mM (inactive)
